Tests used:
Assay type in all cases: cell-based
SMARCA2 [1] = biological target: T1, SMARCA2 (Homo sapiens, UniProt P51531); assay: MSD SMARCA2 degradation in A549 cell line; settings: for Dmax: A549, A549 cells; for Dmax / DC50: 24 h; for DC50: read-out: SMARCA2 MSD A549 degradation 24 h: Average external-Abs DC50
Procedure, shortened: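 A549 cells treated 24 h with compound, 3-fold series from 1000 nM. Lysates captured on MSD plates and SMARCA2 quantified with anti-SMARCA2 and SULFO-TAG secondary antibodies (electrochemiluminescence). DC50 and Dmax (% degradation at 24 h) reported as letter bins.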

SMARCA4 = biological target: T2, SMARCA4 (Homo sapiens, UniProt P51532); assay: SMARCA4 Western blot degradation in MV4-11 cells; settings: for Dmax: MV4-11, MV4-11 cells, read-out: SMARCA4 MSD MV411 degradation 24 h: average Dmax %; for Dmax / DC50: 24 h; for DC50: read-out: SMARCA4 MSD MV411 degradation 24 h: Mean external-Abs DC50
T2 construct: SMARCA2/SMARCA4 protein degradation selectivity in MV4-11 cells; endogenous in cells; host or cells: MV4-11
T2 sequence (P51532 whole entry): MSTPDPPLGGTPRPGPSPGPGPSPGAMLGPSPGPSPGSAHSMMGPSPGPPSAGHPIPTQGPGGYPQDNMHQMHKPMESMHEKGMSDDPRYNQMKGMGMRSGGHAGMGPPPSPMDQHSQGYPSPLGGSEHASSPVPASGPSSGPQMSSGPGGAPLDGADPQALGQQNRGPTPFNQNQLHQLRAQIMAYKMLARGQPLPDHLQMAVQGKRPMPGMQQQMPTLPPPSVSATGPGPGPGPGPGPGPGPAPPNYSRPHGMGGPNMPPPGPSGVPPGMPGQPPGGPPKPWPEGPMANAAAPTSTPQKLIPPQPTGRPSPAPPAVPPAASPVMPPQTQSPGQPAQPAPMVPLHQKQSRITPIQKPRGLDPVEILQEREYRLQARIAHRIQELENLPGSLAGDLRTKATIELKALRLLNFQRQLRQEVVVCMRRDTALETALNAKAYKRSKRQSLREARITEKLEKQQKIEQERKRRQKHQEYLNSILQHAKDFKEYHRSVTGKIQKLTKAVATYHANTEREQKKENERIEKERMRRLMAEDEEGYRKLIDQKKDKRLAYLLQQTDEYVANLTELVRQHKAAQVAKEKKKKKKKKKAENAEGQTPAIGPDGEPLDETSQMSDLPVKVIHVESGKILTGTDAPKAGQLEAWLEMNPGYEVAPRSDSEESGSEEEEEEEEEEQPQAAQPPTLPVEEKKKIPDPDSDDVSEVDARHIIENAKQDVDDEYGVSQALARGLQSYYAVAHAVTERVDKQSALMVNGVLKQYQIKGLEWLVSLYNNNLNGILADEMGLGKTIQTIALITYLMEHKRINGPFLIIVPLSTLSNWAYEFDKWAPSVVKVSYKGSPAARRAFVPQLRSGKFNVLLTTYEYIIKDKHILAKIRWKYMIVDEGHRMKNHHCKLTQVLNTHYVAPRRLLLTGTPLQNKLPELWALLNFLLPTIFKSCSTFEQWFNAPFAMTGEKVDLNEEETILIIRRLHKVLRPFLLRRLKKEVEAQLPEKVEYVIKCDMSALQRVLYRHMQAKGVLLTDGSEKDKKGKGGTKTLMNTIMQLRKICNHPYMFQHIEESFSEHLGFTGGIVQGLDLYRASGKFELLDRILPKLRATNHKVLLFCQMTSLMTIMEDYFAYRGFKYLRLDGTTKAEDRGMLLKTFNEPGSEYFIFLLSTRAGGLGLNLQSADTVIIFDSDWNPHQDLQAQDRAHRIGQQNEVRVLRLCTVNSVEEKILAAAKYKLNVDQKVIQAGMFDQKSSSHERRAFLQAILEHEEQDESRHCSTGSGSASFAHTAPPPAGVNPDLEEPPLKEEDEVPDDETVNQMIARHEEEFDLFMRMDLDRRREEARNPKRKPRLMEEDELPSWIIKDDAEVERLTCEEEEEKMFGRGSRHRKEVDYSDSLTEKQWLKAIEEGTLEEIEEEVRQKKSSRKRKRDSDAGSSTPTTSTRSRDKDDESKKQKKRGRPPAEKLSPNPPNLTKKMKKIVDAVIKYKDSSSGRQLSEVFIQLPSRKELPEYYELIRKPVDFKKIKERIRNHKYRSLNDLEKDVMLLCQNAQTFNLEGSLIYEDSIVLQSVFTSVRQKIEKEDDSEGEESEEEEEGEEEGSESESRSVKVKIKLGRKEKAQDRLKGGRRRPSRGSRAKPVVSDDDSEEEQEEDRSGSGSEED
Procedure, shortened: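 24 h compound exposure, MV4-11; RIPA lysates → SDS-PAGE → NC membrane; anti-SMARCA2/BRM, anti-BRG1, β-actin loading control; LI-COR fluorescence read. DC50 and Dmax at 24 h reported as letter bins.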

SMARCA2 [2] = biological target: T1, SMARCA2; assay: SMARCA2 Western blot degradation in MV4-11 cells; design: SMARCA2/SMARCA4 protein degradation selectivity in MV4-11 cells; endogenous in cells; host or cells: MV4-11; settings: for Dmax: MV4-11, MV4-11 cells, read-out: SMARCA2 MSD MV411 degradation 24 h: average Dmax %; for DC50: read-out: SMARCA2 MSD MV411 degradation 24 h: Mean external-Abs DC50; for Selectivity in MV411: SMARCA2/4 selectivity

T1 sequence (P51531 whole entry): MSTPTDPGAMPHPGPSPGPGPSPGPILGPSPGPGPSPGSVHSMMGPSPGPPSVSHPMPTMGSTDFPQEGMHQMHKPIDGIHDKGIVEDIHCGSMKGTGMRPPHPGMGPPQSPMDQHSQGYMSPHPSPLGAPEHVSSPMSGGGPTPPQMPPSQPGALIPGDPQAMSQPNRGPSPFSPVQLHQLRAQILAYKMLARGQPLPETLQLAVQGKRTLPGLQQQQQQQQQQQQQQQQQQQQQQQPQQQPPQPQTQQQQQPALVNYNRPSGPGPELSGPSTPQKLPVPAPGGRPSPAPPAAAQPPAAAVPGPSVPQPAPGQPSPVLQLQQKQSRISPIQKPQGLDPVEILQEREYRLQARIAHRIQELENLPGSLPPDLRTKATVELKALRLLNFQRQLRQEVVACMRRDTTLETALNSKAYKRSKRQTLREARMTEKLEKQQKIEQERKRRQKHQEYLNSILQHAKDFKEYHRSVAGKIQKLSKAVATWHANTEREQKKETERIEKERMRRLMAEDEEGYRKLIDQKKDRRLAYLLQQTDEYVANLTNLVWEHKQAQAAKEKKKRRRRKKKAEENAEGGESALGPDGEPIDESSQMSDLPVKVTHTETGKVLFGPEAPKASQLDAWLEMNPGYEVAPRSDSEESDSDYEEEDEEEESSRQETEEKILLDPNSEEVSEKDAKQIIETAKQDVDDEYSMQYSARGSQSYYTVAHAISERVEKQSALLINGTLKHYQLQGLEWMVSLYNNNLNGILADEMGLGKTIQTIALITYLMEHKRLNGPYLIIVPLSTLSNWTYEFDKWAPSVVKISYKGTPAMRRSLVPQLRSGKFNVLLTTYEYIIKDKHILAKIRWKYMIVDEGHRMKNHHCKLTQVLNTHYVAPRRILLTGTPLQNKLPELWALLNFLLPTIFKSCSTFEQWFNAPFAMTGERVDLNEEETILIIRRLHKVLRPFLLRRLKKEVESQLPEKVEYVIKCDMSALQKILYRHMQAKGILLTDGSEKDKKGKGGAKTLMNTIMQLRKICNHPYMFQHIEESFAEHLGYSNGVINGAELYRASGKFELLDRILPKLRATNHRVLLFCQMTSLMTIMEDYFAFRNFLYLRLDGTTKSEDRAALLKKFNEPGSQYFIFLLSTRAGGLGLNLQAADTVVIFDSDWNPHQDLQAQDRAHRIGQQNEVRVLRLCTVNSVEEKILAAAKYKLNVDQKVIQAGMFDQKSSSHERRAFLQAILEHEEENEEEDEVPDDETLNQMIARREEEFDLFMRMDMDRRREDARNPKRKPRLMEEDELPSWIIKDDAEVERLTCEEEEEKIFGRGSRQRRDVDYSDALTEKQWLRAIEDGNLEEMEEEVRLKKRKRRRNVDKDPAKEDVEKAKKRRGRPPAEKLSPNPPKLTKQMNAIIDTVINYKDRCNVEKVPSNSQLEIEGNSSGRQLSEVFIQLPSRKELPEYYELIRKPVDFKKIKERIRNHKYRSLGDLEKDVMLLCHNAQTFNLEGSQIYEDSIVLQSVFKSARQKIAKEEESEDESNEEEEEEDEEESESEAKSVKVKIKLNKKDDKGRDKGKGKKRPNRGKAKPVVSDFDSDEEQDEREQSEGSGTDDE

| Compound | Dmax (SMARCA2 [1]) [%] | DC50 (SMARCA2 [1]; A549 cells) [nM] | Dmax (SMARCA4) [%] | DC50 (SMARCA4; MV4-11 cells) [nM] | Dmax (SMARCA2 [2]; 24 h) [%] | DC50 (SMARCA2 [2]; MV4-11 cells, 24 h) [nM] | Selectivity in MV411 (SMARCA2 [2]; MV4-11 cells) | SMARCA2 MSD A549 degradation 24 h: Average Dmax % (SMARCA2 [1]; A549 cells) | SMARCA4 MSD MV411 degradation 24 h: average Dmax % (SMARCA4; MV4-11 cells) | SMARCA2 MSD MV411 degradation 24 h: average Dmax % (SMARCA2 [2]; MV4-11 cells, 24 h) |
| --- | --- | --- | --- | --- | --- | --- | --- | --- | --- | --- |
| C#Cc1ccc(CNC(=O)[C@@H]2C[C@@H](O)CN2C(=O)[C@@H](NC(=O)[C@H]2CCC3(CC2)C[C@H](N2CCN(c4cnc(N5CCN6c7cc(-c8ccccc8O)nnc7NC[C@H]6C5)nc4)CC2)C3)C(C)(C)CCO)c(Cl)c1 (single isomer, unassigned) [I-311] | > 90 | 10 to 50 | 70 to 90 | > 100 | 70 to 90 | 1 to 10 | C (C (10-100 fold)) | – | – | – |
| C#Cc1ccc(CNC(=O)[C@@H]2C[C@@H](O)CN2C(=O)C(c2cc(OCCN3CCC(N4CCC(N5CCC(CN6CCN7c8cc(-c9ccccc9O)nnc8NC[C@H]7C6)CC5)CC4)CC3)no2)C(C)C)c(F)c1 (stereo partly shown) [I-296] | > 90 | 50 to 100 | 70 to 90 | 10 to 100 | > 90 | 1 to 10 | C (C (10-100 fold)) | – | – | – |
| Cc1ncsc1-c1ccc(CNC(=O)[C@@H]2C[C@@H](O)CN2C(=O)C(c2cc(OCCCN3CCC(c4cnc(N5CCN6c7cc(-c8ccccc8O)nnc7NC[C@H]6C5)nc4)CC3)no2)C(C)C)cc1 (single isomer, unassigned) [I-53] | > 90 | 10 to 50 | > 90 | 1 to 10 | > 90 | < 1 | D (D (<10 fold)) | – | – | – |
| C#Cc1ccc(CNC(=O)[C@@H]2C[C@@H](O)CN2C(=O)[C@@H](NC(=O)[C@H]2CCC3(CC2)C[C@H](N2CCC(N4CCC(N5CCN6c7cc(-c8ccccc8O)nnc7NC[C@H]6C5)CC4)CC2)C3)C(C)(C)C)c(OC)c1 (single isomer, unassigned) [I-177] | > 90 | > 100 | 50 to 70 | > 100 | 70 to 90 | 10 to 100 | C (C (10-100 fold)) | – | – | – |
| C#Cc1ccc(CNC(=O)[C@@H]2C[C@@H](O)CN2C(=O)[C@@H](NC(=O)N2CCC(N3CCC(N4CC5(CC(N6CCc7[nH]c8nnc(-c9ccccc9O)cc8c7[C@H]6C)C5)C4)CC3)CC2)C(C)(C)C)cc1 [I-208] | 70 to 90 | > 100 | < 50 | > 100 | < 50 | > 100 | C (C (10-100 fold)) | – | – | – |
| C#Cc1ccc(CNC(=O)[C@@H]2C[C@@H](O)CN2C(=O)[C@@H](NC(=O)N2CC3(CC(N4CCC(c5cnc(N6CCc7[nH]c8nnc(-c9ccccc9O)cc8c7[C@H]6C)s5)CC4)C3)C2)C(C)(C)C)cc1 [I-323] | > 90 | 10 to 50 | 50 to 70 | > 100 | 70 to 90 | 1 to 10 | C (C (10-100 fold)) | – | – | – |
| C#Cc1cc(F)c(CNC(=O)[C@@H]2C[C@@H](O)CN2C(=O)[C@@H](NC(=O)N2CC3(CC(N4CCC(c5cnc(N6CCc7[nH]c8nnc(-c9ccccc9O)cc8c7[C@H]6C)nc5)CC4)C3)C2)C(C)(C)C)cc1F [I-403] | > 90 | 10 to 50 | 70 to 90 | > 100 | 70 to 90 | 10 to 100 | C (C (10-100 fold)) | – | – | – |
| C#Cc1ccc(CNC(=O)[C@@H]2C[C@@H](O)CN2C(=O)[C@@H](NC(=O)C2CCC3(CC2)CC(N2CCC(c4ccc(N5CCN6c7cc(-c8ccccc8O)nnc7NC[C@H]6C5)cc4)CC2)C3)C(C)(C)C)cc1 (stereo partly shown) [I-95] | < 50 | > 100 | < 50 | > 100 | < 50 | > 100 | C (C (10-100 fold)) | – | – | – |
| C#Cc1ccc(CNC(=O)[C@@H]2C[C@@H](O)CN2C(=O)[C@@H](NC(=O)[C@H]2CCC3(CC2)C[C@H](N2CCC(c4cnc(N5CCN6c7cc(-c8ccccc8O)nnc7NC[C@H]6C5)nc4)CC2)C3)C(C)(C)C)c(OCCCOC)c1 (single isomer, unassigned) [I-130] | > 90 | < 10 | > 90 | 10 to 100 | > 90 | 1 to 10 | D (D (<10 fold)) | – | – | – |
| Cc1ncsc1-c1ccc(CNC(=O)[C@@H]2C[C@@H](O)CN2C(=O)C(c2cc(N3CC4(CC(N5CCC(c6cnc(N7CCc8[nH]c9nnc(-c%10ccccc%10O)cc9c8[C@H]7C)nc6)CC5)C4)C3)no2)C(C)C)cc1 (single isomer, unassigned) [I-10] | > 90 | 10 to 50 | > 90 | 1 to 10 | > 90 | < 1 | D (D (<10 fold)) | – | – | – |
| Cc1ncsc1-c1ccc(CNC(=O)[C@@H]2C[C@@H](O)CN2C(=O)[C@@H](NC(=O)C2(F)CC2)C(C)(C)C)c(O[C@H]2CC[C@@H](N3CCC(N4CCC(c5cnc(N6CCc7[nH]c8nnc(-c9ccccc9O)cc8c7[C@@H]6C)nc5)CC4)CC3)CC2)c1 (single isomer, unassigned) [I-48] | 70 to 90 | > 100 | > 90 | > 100 | 50 to 70 | 10 to 100 | C (C (10-100 fold)) | – | – | – |
| C#Cc1ccc(CNC(=O)[C@@H]2C[C@@H](O)CN2C(=O)[C@@H](NC(=O)N2CCN(CC3CCN([C@H]4CC[C@@H](N5CCN6c7cc(-c8ccccc8O)nnc7NC[C@H]6C5)CC4)CC3)CC2)C(C)(C)C)cc1 [I-216] | 70 to 90 | > 100 | < 50 | > 100 | < 50 | > 100 | C (C (10-100 fold)) | – | – | – |
| C#Cc1ccc(CNC(=O)[C@@H]2C[C@@H](O)CN2C(=O)[C@@H](NC(=O)[C@H]2CC3(C2)C[C@H](N2CCC(N4CCC(N5CCN6c7cc(-c8ccccc8O)nnc7NC[C@H]6C5)CC4)CC2)C3)C(C)(C)CCO)cc1 (single isomer, unassigned) [I-365] | – | > 100 | – | > 100 | – | 1 to 10 | A (A (>500 fold)) | A (A (>90% degradation)) | D (D (<50% degradation)) | B (B (>70-90% degradation)) |
| C#Cc1ccc(CNC(=O)[C@@H]2C[C@@H](O)CN2C(=O)[C@@H](NC(=O)N2CC3(CC(N4CCC(c5cnc(N6CCc7[nH]c8nnc(-c9ccccc9O)cc8c7[C@H]6C)nc5)CC4)C3)C2)C(C)(C)CCN2CCN[C@H](C(=O)O)C2)cc1 [I-344] | < 50 | > 100 | < 50 | > 100 | < 50 | > 100 | C (C (10-100 fold)) | – | – | – |
| Cc1ncsc1-c1ccc(CNC(=O)[C@@H]2C[C@@H](O)CN2C(=O)C(c2cc(N3CCC4(CC3)CC(N3CCC(c5cnc(N6CCc7[nH]c8nnc(-c9ccccc9O)cc8c7[C@H]6C)nc5)CC3)C4)no2)C(C)C)cc1 (stereo partly shown) [I-13] | > 90 | 10 to 50 | > 90 | 10 to 100 | > 90 | 1 to 10 | C (C (10-100 fold)) | – | – | – |
| C#Cc1ccc(CNC(=O)[C@@H]2C[C@@H](O)CN2C(=O)[C@@H](NC(=O)N2CC3(CC(N4CCC(c5cnc(N6CCc7[nH]c8nnc(-c9ccccc9O)cc8c7[C@H]6C)nc5)CC4)C3)C2)C(C)(C)CCN2CCN[C@@H](C(=O)O)C2)cc1 [I-342] | < 50 | > 100 | < 50 | > 100 | < 50 | > 100 | C (C (10-100 fold)) | – | – | – |

Reference: patent US20250170248A1, “SMARCA DEGRADERS AND USES THEREOF” (Kymera Therapeutics, Inc., priority 2021, published 2025)
